These results are taken from patent US11180452B2, “Methods and compositions for selectively inhibiting pathogenic microbes” (priority 2019, dated 2021).

Molecules are shown by their SMILES. Converted amounts (≈) assume the structure as drawn. Like-named read-outs stand apart in the source and are kept apart here. A value given as a limit tells only on which side of the number the result lay.

As a reminder, the MBC is the smallest concentration meeting the test's criterion for killing. Low readings indicate more potent killing, high ones less potent killing. As usually defined, the MFC is the smallest concentration meeting the test's criterion for killing the fungus.

Holding throughout (format): cell-based
The test system of experiment [1] is Burkholderia thailandensis Brett et al ATCC: 700388. In words: microbe, parasite or virus in culture.
The subject of another experiment is Bacillus subtilis. Description: Bacillus subtilis MIC / MBC. As to conditions: for MBC: Bacillus subtilis NRRL: B-571, minimum bactericidal concentration; for MIC: Bacillus subtilis (Ehrenberg 1835) Cohn 1872 NRRL: B-571, read-out: MIC.
Another experiment relates to Bacillus thuringiensis. The conditions noted are these: Bacillus thuringiensis Berliner ATCC: 10792; for MIC: Bacillus thuringiensis, read-out: MIC.
The subject of a further experiment is Candida glabrata. Description: Candida glabrata MIC / MFC. The conditions noted are these: Nakaseomyces glabratus, Candida glabrata #584 (Table 2); for MIC: read-out: MIC; for MFC: minimum fungicidal concentration, read-out: MFC.
Experiment [2] has as its system Francisella tularensis subsp. Holarctica Strain LVSR NR-597. In words: microbe, parasite or virus in culture.
For experiment [3], the system named is Francisella tularensis strains. Description: microbe, parasite or virus in culture.

Take `Cc1[nH]c2ccccc2c1Sc1ccc(Br)cc1` [Compound 172C, 3-((4-bromophenyl)thio)-2-methyl-1H-indole]: the MIC in experiment [1] was > 50 µg/mL.

As for `Brc1ccc(Sc2c[nH]c3c(Br)cc(Br)cc23)cc1` [Compound 174AC, 5,7-dibromo-3-((4-bromophenyl)thio)-1H-indole], the minimum bactericidal concentration (MBC) against Bacillus subtilis is 16 µg/mL (≈ 34.6 µM); with Bacillus thuringiensis, 50 µg/mL (≈ 108 µM). For the same molecule, the MIC is 8 µg/mL (≈ 17.3 µM) in the experiment on Bacillus subtilis (Bacillus subtilis), 8 µg/mL (≈ 17.3 µM) in the experiment on Bacillus thuringiensis, > 50 µg/mL in experiment [1] and 25 µg/mL (≈ 54.1 µM) in the experiment with Candida glabrata.

Regarding `Clc1c(Cl)c(Cl)c(Sc2c[nH]c3ccc(Br)cc23)c(Cl)c1Cl` [Compound 174AD, 5-bromo-3-((perchlorophenyl)thio)-1H-indole], the MIC with Bacillus subtilis is 16 µg/mL (≈ 33.6 µM); in the experiment on Bacillus thuringiensis it was 32 µg/mL (≈ 67.2 µM); in experiment [1], > 50 µg/mL. The MBC against Bacillus subtilis was 50 µg/mL (≈ 105 µM); in the experiment on Bacillus thuringiensis it was > 50 µg/mL.

Consider `Clc1cc(Cl)c(Sc2c[nH]c3ccc(Br)cc23)c(Cl)c1` [Compound 174AG, 5-bromo-3-((2,4,6-trichlorophenyl)thio)-1H-indole], for which the minimal bactericidal concentration (MBC) against Bacillus subtilis and against Bacillus thuringiensis was > 50 µg/mL each time. Further, the MIC is 4 µg/mL (≈ 9.81 µM) in the experiment on Bacillus subtilis (Bacillus subtilis), 4 µg/mL (≈ 9.81 µM) with Bacillus thuringiensis, > 50 µg/mL in experiment [1] and 6.25 µg/mL (≈ 15.3 µM) in the experiment on Candida glabrata. Besides, the minimal fungicidal concentration (MFC) in the experiment on Candida glabrata is > 50 µg/mL.

In the case of `Brc1ccc2[nH]cc(Sc3cc(Br)c(Br)c(Br)c3)c2c1` [Compound 174AH, 5-bromo-3-((3,4,5-tribromophenyl)thio)-1H-indole], the MBC with Bacillus subtilis and in the experiment on Bacillus thuringiensis was > 50 µg/mL throughout. Also, the MIC is 8 µg/mL (≈ 14.8 µM) in the experiment with Bacillus subtilis (Bacillus subtilis), 8 µg/mL (≈ 14.8 µM) with Bacillus thuringiensis, > 50 µg/mL in experiment [1] and > 50 µg/mL in the experiment on Candida glabrata.

For the molecule `Clc1ccccc1Sc1c[nH]c2ccc(Br)cc12` [Compound 174AJ, 5-bromo-3-((2-chlorophenyl)thio)-1H-indole], the minimal bactericidal concentration (MBC) came out at 3.13 µg/mL (≈ 9.24 µM) in the experiment with Bacillus subtilis and 1.56 µg/mL (≈ 4.61 µM) against Bacillus thuringiensis. The MIC with Bacillus subtilis (Bacillus subtilis) is 0.78 µg/mL (≈ 2.3 µM); in the experiment on Bacillus thuringiensis it was 0.78 µg/mL (≈ 2.3 µM); in experiment [1], > 50 µg/mL; with Candida glabrata, 6.25 µg/mL (≈ 18.5 µM). In addition, the minimum fungicidal concentration (MFC) in the experiment with Candida glabrata turned out to be 25 µg/mL (≈ 73.8 µM).

On to `Cc1[nH]c2ccc(O)cc2c1Sc1ccccc1N` [Compound 174AK, 3-((2-aminophenyl)thio)-2-methyl-1H-indol-5-ol], for which the minimum bactericidal concentration (MBC) in the experiment with Bacillus subtilis is > 50 µg/mL. Also, the MIC in the experiment with Bacillus subtilis (Bacillus subtilis) is 50 µg/mL (≈ 185 µM); in the experiment on Bacillus thuringiensis, > 50 µg/mL; in experiment [1] it was > 50 µg/mL; in the experiment on Candida glabrata it was > 50 µg/mL.

Regarding `Brc1ccc(Sc2cnc3ccccn23)cc1` [Compound 174AN, 3-((4-bromophenyl)thio)imidazo[1,2-a]pyridine], the MIC in the experiment on Bacillus subtilis (Bacillus subtilis) was 16 µg/mL (≈ 52.4 µM); in the experiment on Candida glabrata, 50 µg/mL (≈ 164 µM).

As for `Cc1[nH]c2ccc(O)cc2c1Sc1ccccc1O` [Compound 174AO, 3-((2-hydroxyphenyl)thio)-2-methyl-1H-indol-5-ol], the MIC in the experiment on Bacillus subtilis (Bacillus subtilis) is 50 µg/mL (≈ 184 µM); in experiment [2], 50 µg/mL (≈ 184 µM); in the experiment with Candida glabrata it was > 50 µg/mL.

Regarding `Oc1ccc2[nH]cc(Sc3ccccc3O)c2c1` [Compound 174AP, 3-((2-hydroxyphenyl)thio)-1H-indol-5-ol], the MIC in the experiment with Bacillus subtilis (Bacillus subtilis) is 50 µg/mL (≈ 194 µM); in experiment [2], 50 µg/mL (≈ 194 µM); in the experiment on Candida glabrata, > 50 µg/mL.

As to `COc1ccc2[nH]cc(Sc3ccccc3O)c2c1` [Compound 174AQ, 2-((5-methoxy-1H-indol-3-yl)thio)phenol], the MIC turned out to be 32 µg/mL (≈ 118 µM) in the experiment on Bacillus subtilis (Bacillus subtilis), 16 µg/mL (≈ 59 µM) in experiment [2] and 50 µg/mL (≈ 184 µM) in the experiment with Candida glabrata.

Turning to `Oc1ccc2[nH]cc(Sc3ccccc3Br)c2c1` [Compound 174AR, 3-((2-bromophenyl)thio)-1H-indol-5-ol], the MIC in the experiment with Bacillus subtilis (Bacillus subtilis) came to 8 µg/mL (≈ 25 µM); in experiment [2], 4 µg/mL (≈ 12.5 µM); with Candida glabrata, 50 µg/mL (≈ 156 µM).

Turning to `COc1ccc2[nH]cc(Sc3ccccc3Br)c2c1` [Compound 174AS, 3-((2-bromophenyl)thio)-5-methoxy-1H-indole], the MIC in the experiment on Bacillus subtilis (Bacillus subtilis) is 2 µg/mL (≈ 5.98 µM); in experiment [2] it was 1 µg/mL (≈ 2.99 µM); with Candida glabrata it was > 50 µg/mL.

For the molecule `OCc1ccccc1Sc1c[nH]c2ccc(Br)cc12` [Compound 174AT, (2-((5-bromo-1H-indol-3-yl)thio)phenyl)methanol], the minimum bactericidal concentration (MBC) in the experiment with Bacillus subtilis and in the experiment with Bacillus thuringiensis was 16 µg/mL (≈ 47.9 µM) in each case. For the same molecule, the MIC came to 8 µg/mL (≈ 23.9 µM) with Bacillus subtilis (Bacillus subtilis), 8 µg/mL (≈ 23.9 µM) in experiment [2], 8 µg/mL (≈ 23.9 µM) with Bacillus thuringiensis and 50 µg/mL (≈ 150 µM) in the experiment on Candida glabrata.

Regarding `Cc1ccccc1Sc1c[nH]c2ccc(Br)cc12` [Compound 174AY, 5-bromo-3-(o-tolylthio)-1H-indole], the MBC against Bacillus subtilis was 2 µg/mL (≈ 6.28 µM); in the experiment on Bacillus thuringiensis, 4 µg/mL (≈ 12.6 µM). Besides, the MIC worked out at 1 µg/mL (≈ 3.14 µM) in the experiment on Bacillus subtilis (Bacillus subtilis); 1 µg/mL (≈ 3.14 µM) in experiment [2]; 2 µg/mL (≈ 6.28 µM) in the experiment on Bacillus thuringiensis; 4 µg/mL (≈ 12.6 µM) in experiment [3] (read-out: F. tularensis BSL-3 MIC, Strain 100); 2 µg/mL (≈ 6.28 µM) in experiment [3] (read-out: F. tularensis BSL-3 MIC, strain HN-63); 4 µg/mL (≈ 12.6 µM) in experiment [3] (read-out: F. tularensis BSL-3 MIC, strain LVS). Also, the MIC is 3.67 µg/mL (≈ 11.5 µM) in experiment [3] (read-out: F. tularensis BSL-3 MIC, strain MA00-2987); 2 µg/mL (≈ 6.28 µM) in experiment [3] (read-out: F. tularensis BSL-3 MIC, strain MO #1); 3.33 µg/mL (≈ 10.5 µM) in experiment [3] (read-out: F. tularensis BSL-3 MIC, strain MO #2); 3.67 µg/mL (≈ 11.5 µM) in experiment [3] (read-out: F. tularensis BSL-3 MIC, strain MO #3); 4 µg/mL (≈ 12.6 µM) in experiment [3] (read-out: F. tularensis BSL-3 MIC, strain OR-96); 4 µg/mL (≈ 12.6 µM) in experiment [3] (read-out: F. tularensis BSL-3 MIC, strain SCHU S4). Moreover, the MIC in experiment [3] (read-out: F. tularensis BSL-3 MIC, strain WY-96) was 4 µg/mL (≈ 12.6 µM); in experiment [3] (read-out: MAX, highest MIC over the Francisella tularensis strains), 4 µg/mL (≈ 12.6 µM); in experiment [3] (read-out: MIN, lowest MIC over the Francisella tularensis strains) it was 2 µg/mL (≈ 6.28 µM). The MIC50 in experiment [3] amounted to 3.83 µg/mL (≈ 12 µM).
